Assay results as given in PubChem BioAssay (NCI).
“And” between values parts separate entries of the source, which are not always exact repeats. Equal entries are not always repeated.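 Cells were grown in 96-well plates and exposed to each compound for 48 hours at five concentrations; endpoints were interpolated linearly between bracketing concentrations, or set to the highest concentration if not reached. GI50: concentration for 50% inhibition of growth. TGI denotes the concentration required for complete inhibition of growth.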

How the values were obtained:
Assay in all cases: DTP human tumour cell line panel, 48 h
[1] = tested on: NCI-H23 lung
[2] = tested on: NCI-H522 lung
[3] = tested on: OVCAR-4 ovarian
[4] = tested on: SF-539 CNS
[5] = tested on: OVCAR-3 ovarian
[6] = tested on: LOX IMVI melanoma
[7] = tested on: NCI-H460 lung
[8] = tested on: SK-MEL-5 melanoma
[9] = tested on: A498 renal
[10] = tested on: SF-268 CNS
[11] = tested on: SK-MEL-2 melanoma
[12] = tested on: MOLT-4 leukemia
[13] = tested on: HCT-15 colon
[14] = tested on: M14 melanoma
[15] = tested on: SR leukemia
[16] = tested on: MCF7 breast
[17] = tested on: SF-295 CNS
[18] = tested on: UACC-62 melanoma
[19] = tested on: SNB-19 CNS

Compound	TGI [1] [µM]	TGI [2] [µM]	TGI [3] [µM]	TGI [4]	TGI [5]	TGI [6] [µM]	TGI [7] [µM]	TGI [8]	TGI [9] [µM]	TGI [10] [µM]	TGI [11] [µM]	TGI [12] [µM]	TGI [13] [µM]	TGI [14] [µM]	TGI [15] [µM]	TGI [16] [µM]	TGI [17]	TGI [18]	TGI [19] [µM]	GI50 [16]
Cc1cc2sc(C)[n+](CCCOS(=O)(=O)[O-])c2cc1C	> 100	> 100	> 100	> 100 µM	> 100 µM	> 100	> 100	> 100 µM	> 100	> 100	> 100	> 100	> 100	> 100	> 100	> 100	> 100 µM	> 100 µM	> 100	
CC(C)(C)C(=O)CP(=O)(O)O	> 100	> 100	> 100	> 100 µM	> 100 µM	> 100	> 100	> 100 µM	> 100	> 100	> 100	> 100	> 100	> 100	> 100	> 100	> 100 µM	> 100 µM	> 100	
N=[N+]=CC(=O)CCC(NC(=O)C(CCC(=O)C=[N+]=N)NC(=O)CCC(N)C(=O)O)C(=O)O (stereo not given)	> 100	> 100	> 100	> 100 µM	> 100 µM	> 100	> 100	> 100 µM	> 100	> 100	> 100	> 100	> 100			> 100	> 100 µM	> 100 µM	> 100	
Nc1c(C(=O)Nc2ccc(C3=NCCN3)cc2)cccc1C(=O)Nc1ccc(C2=NCCN2)cc1	> 100	> 100	> 100	> 100 µM	> 100 µM	> 100	> 100	> 100 µM	> 100	> 100	> 100	> 100	> 100			> 100	> 100 µM	> 100 µM	> 100	
C[n+]1ccc(Nc2ccc(NC(=O)c3ccc(Nc4cc[n+](C)c5ccc([N+](=O)[O-])cc45)cc3[N+](=O)[O-])cc2)cc1	> 100	> 100	> 100	68.5 µM and > 66.7 µM	54.6 µM and 54.3 µM	> 100	> 100	70.4 µM and > 70.4 µM	> 94.1	> 100	> 100	> 100	> 100	> 100	> 100	> 58.3	63.6 µM and 60 µM	> 90.4 µM and 63.6 µM	> 100	1.25 µM and 3.34 µM
Cc1ccc(N=Nc2ccc(N)cc2C)c(S(N)(=O)=O)c1	> 100	> 100	> 100	> 100 µM	> 100 µM	> 100	> 100	> 100 µM	> 100	> 100	> 100	> 100	> 100	> 100	> 100	> 100	> 100 µM	> 100 µM	> 100	
COC(=O)c1cc2cc3c(c(O)c2c(=O)o1)O[C@@]1(Oc2c(O)c4c(c(O)c2[C@H]1OC1CC(OC)C(O)C(C)O1)C(=O)C=C(OC)C4=O)[C@H](O)C3 (stereo not given in full)	3.85	5.19	2.89	1.97 µM	> 23.4 µM		> 21.6			5.19	10.5	6.22	> 19.7	> 100	4.76	10.1	> 29.6 µM	1.78 µM	12.6	
C/C=C(\C)C(=O)OC1C(C)=C2C(C1OC(=O)CCCC)C(C)(OC(C)=O)CC(OC(=O)CCCC)C1(O)C2OC(=O)C1(C)O (stereo not given)	> 47.4	7.02	> 100	> 100 µM	2.62 µM	2.08	> 100		> 100	> 100	3.96	> 100	> 100	4.53	> 81	> 100	> 100 µM	13.2 µM	> 100	
C/C(=N\NC(=S)N1CCN(C)CC1)c1nc2ncccc2[nH]1	> 100	> 100	> 100	> 100 µM	> 100 µM	> 100	> 100	> 100 µM	> 100	> 100		> 100	> 100	> 100		80.5	> 100 µM	> 100 µM	> 100	
CN(Cc1cccc2ccccc12)Cc1cccc2ccccc12	> 100	45.4	> 100	59.6 µM	> 100 µM	> 100	> 100	33.6 µM	80.1	> 100	31	35	> 100	74.3	90.8	45	> 100 µM	> 100 µM	> 100	
O=C(O)NCC1CCCCC1 (tested in a mixture with another compound)	81.2	28	> 100		19.8 µM	28.6	26.1	28.7 µM	34.1	38.4	30.9	> 100	63.6	> 100	72		50.3 µM	34.2 µM	> 100	
CC(C)(C)NCC(O)c1ccc(O)c(CO)n1 (stereo not given)	> 100	> 100	> 100	> 100 µM	> 100 µM	> 100	> 100	> 100 µM	> 100	> 100	> 100	> 100	> 100	> 100	> 100	> 100	> 100 µM	> 100 µM	> 100	
OC(c1cc(-c2ccc(Cl)cc2)nc2ccccc12)C1CCCCN1 (stereo not given)	4.58	2.77	5.11	3.52 µM	3.98 µM	2.09	4.76	5.9 µM	3.54	4.51		4.52	6.11	3.37		3.03	3.67 µM	3.43 µM	37.6	
C1CSC(=[N+]2CC[N+](=C3SCCS3)CC2)S1	> 100	> 100	> 100	> 100 µM	> 100 µM	> 100	> 100	> 100 µM	> 100	> 100	> 100	> 100	> 100	> 100	> 100		> 100 µM	> 100 µM	> 100	
O=C(NC1C=Nc2ccc([N+](=O)[O-])cc2NC1=O)c1cc(Cl)cc([N+](=O)[O-])c1 (stereo not given)	> 100	67.8	> 100	> 100 µM		> 100	> 100	> 100 µM	> 100	> 100	> 100	> 100	> 100	> 100	> 100		> 100 µM	> 100 µM	> 100	
Oc1ccc(Cc2nccc3cc(O)c(O)cc23)cc1O	> 100	> 100	> 100	> 100 µM	> 100 µM	> 100	> 100	> 100 µM	> 100	> 100	> 100	> 100	> 100	78.2	96.8	49.6	> 100 µM	> 100 µM	> 100	
C[n+]1c2ccccc2c(NC(CS)C(=O)O)c2ccccc21 (stereo not given)	> 100	42.3	> 100	44 µM	71.9 µM		> 100	44.6 µM	53	70.2	89.7	38.6	> 100	> 100	39.4		77.7 µM	34.2 µM	> 100	
